From patent publication US10597719B2, “Detection kit and simple method for detecting target nucleic acids” (National University Corporation Gunma University, priority 2015, dated 2020)
Where two headings read alike, the source gives them in different places.

Experiments:
dsDNA = assay: Fluorescence titration, binding of dye to dsDNA standard; conditions: for Kd: n.d. cells; for emission of fluorescence in the presence of dsDNA: dye 3 μM in PBS153NM, dsDNA 0-15 μM (FIG. 2)
Experimental: (§1) Besides these sequences, the following two kinds of oligonucleotides were used as standards:
(§2) The ssDNA was used as a single-stranded DNA, and the cDNA was used as a double-stranded DNA (dsDNA) by mixing with the ssDNA at a ratio of 1:1.
(§3) Each of the eight kinds of oligonucleotides (22AG, 26Tel, 27Myc, 22Kit, 20Src, 18Ras, ssDNA, and dsDNA) was dissolved in the buffer TRS50K, PBS150K, PBS140KM, or PBS153NM at a concentration of 21 μM, and denatured by heating at 95° C. (or at 40° C. for 18Ras) for 0.5 minute using a thermal cycler, followed by cooling the resulting solution to 25° C. at a rate of 0.5° C./minute to allow refolding. Each solution was diluted to an appropriate oligonucleotide concentration, and its aliquots (50 μL each) were incubated at 25° C. for 30 minutes, followed by mixing each aliquot with 20 μL of a solution of a dye (ThT, ThT-DB, or ThT-HE; 10.5 μM) in the buffer TRS50K, PBS150K, PBS140KM, or PBS153NM. These mixtures were incubated at 25° C. for 30 minutes. An emission spectrum of each dye was obtained by excitation at 415 nm and monitoring of fluorescence between 450 nm and 600 nm.
(§4) FIGS. 3-4 to 3-6 show relative fluorescence intensities as the peaks of the emitted light at 485 nm (ThT and ThT-HE) or 500 nm (ThT-DB) with respect to the intensity of the dye that interacted with dsDNA, which was taken as 1. The X-axis represents the oligonucleotide concentration.

18Ras = assay: Fluorescence titration, binding of dye to 18Ras; design: species or system human
Experimental: (§5) The following six kinds of G4-forming human-derived oligonucleotides were used:
the 5′-untranslated region of a human NRAS proto-oncogene transcript (18Ras).
as §3, §4

20Src = assay: Fluorescence titration, binding of dye to 20Src; design: species or system human; conditions: n.d. cells, read-out: Kd 20Sre
Experimental: as §5
a proto-oncogene encoding a nonreceptor tyrosine kinase (20Src); and
as §3, §4

26Tel = assay: Fluorescence titration, binding of dye to 26Tel; design: species or system human
Experimental: as §5
(§6) telomere regions (22AG and 26Tel);
as §3, §4

22AG = assay: Fluorescence titration, binding of dye to 22AG; design: species or system human
Experimental: as §5, §6, §3, §4

22Kit = assay: Fluorescence titration, binding of dye to 22Kit; design: species or system human
Experimental: as §5
the 87-nucleotide upstream region of the transcription initiation site of a proto-oncogene encoding tyrosine kinase (22Kit);
as §3, §4

27Myc = assay: Fluorescence titration, binding of dye to 27Myc; design: species or system human; conditions: for Kd: read-out: Kd 27Mye
Experimental: as §5
the nuclease-sensitive element region of the c-Myc P1 promoter (27Myc);
as §3, §4

ssDNA = assay: Fluorescence titration, binding of dye to ssDNA standard; conditions: n.d. cells
Experimental: as §1, §2, §3, §4

target G4 = assay: Affinity of dyes to the target G4, overall comparison from Table 1; type: binding, human; conditions: according to Table 1
Experimental: as §3, §4

With `Cc1ccc2c(c1)sc(-c1ccc(N(C)C)cc1)[n+]2C.[Cl-]` [ThT, thioflavin T, reference compound] the Kd (dsDNA; buffer PBS150K) was over 40 µM, the Kd (dsDNA; buffer PBS153NM) was over 40 µM and the “emission of fluorescence in the presence of dsDNA” value (dsDNA) was “considerable level of emission of fluorescence”. The Kd (18Ras; buffer PBS150K) was 10.3 ± 3 µM, the Kd (18Ras; buffer PBS153NM) was 16 ± 4.2 µM and the Kd (20Src; buffer PBS150K) was over 40 µM. It also gave a Kd (20Src; buffer PBS153NM) of over 40 µM, a Kd (26Tel; buffer PBS150K) of 5 ± 0.8 µM and a Kd (26Tel; buffer PBS153NM) of 25.3 ± 1.5 µM. The Kd (22AG; buffer PBS150K) was 7.3 ± 0.3 µM, the Kd (22AG; buffer PBS153NM, n.d. cells) was over 40 µM and the Kd (22Kit; buffer PBS150K) was 12.3 ± 1.8 µM. The Kd (22Kit; buffer PBS153NM) was 7.2 ± 0.9 µM, the Kd (27Myc; buffer PBS150K) was 8.7 ± 1 µM and the Kd (27Myc; buffer PBS153NM) was 7.2 ± 0.6 µM. The Kd (ssDNA; buffer PBS150K) was over 40 µM and the Kd (ssDNA; buffer PBS153NM) was over 40 µM.
For `Cc1ccc2c(c1)sc(-c1ccc(N(C)C)cc1)[n+]2CCO` [ThT-HE], the Kd (dsDNA; buffer PBS150K) was over 40 µM, the Kd (dsDNA; buffer PBS153NM) was over 40 µM and the “emission of fluorescence in the presence of dsDNA” value (dsDNA) was “hardly show fluorescence”. For the same compound, the Kd (18Ras; buffer PBS150K) was 20.9 ± 2.8 µM, the Kd (18Ras; buffer PBS153NM) was 28.5 ± 9.7 µM and the Kd (20Src; buffer PBS150K) was over 40 µM. For the same compound, the Kd (20Src; buffer PBS153NM) was over 40 µM, the “affinity to the target G4 compared with ThT” value (target G4) was “generally lower than affinity of ThT” and the Kd (26Tel; buffer PBS150K) was 10.6 ± 2.9 µM. It also gave a Kd (26Tel; buffer PBS153NM, n.d. cells) of over 40 µM, a Kd (22AG; buffer PBS150K) of 17.6 ± 3.6 µM and a Kd (22AG; buffer PBS153NM, n.d. cells) of over 40 µM. The Kd (22Kit; buffer PBS150K) was 40 ± 9 µM, the Kd (22Kit; buffer PBS153NM) was 12.3 ± 1.8 µM and the “specificity to guanine quadruplex” value (27Myc; 27Myc versus dsDNA, PBS153NM (FIG. 2)) was “high specificity to guanine quadruplex”. For the same compound, the Kd (27Myc; buffer PBS150K) was 23.9 ± 1.4 µM, the Kd (27Myc; buffer PBS153NM) was 13.7 ± 1.4 µM and the Kd (ssDNA; buffer PBS150K) was over 40 µM. The Kd (ssDNA; buffer PBS153NM) was over 40 µM.
